Test results reported in PMC7699381, “Rare-Earth Metal Complexes of the Antibacterial Drug Oxolinic Acid: Synthesis, Characterization, DNA/Protein Binding and Cytotoxicity Studies” (Molecules, 2020).

Each compound was assayed against Human serum albumin (HSA) (Homo sapiens, UniProt P02768) (assay: Fluorescence quenching of human serum albumin). Conditions: 298 K.
Human serum albumin (HSA), sequence (P02768 25-609): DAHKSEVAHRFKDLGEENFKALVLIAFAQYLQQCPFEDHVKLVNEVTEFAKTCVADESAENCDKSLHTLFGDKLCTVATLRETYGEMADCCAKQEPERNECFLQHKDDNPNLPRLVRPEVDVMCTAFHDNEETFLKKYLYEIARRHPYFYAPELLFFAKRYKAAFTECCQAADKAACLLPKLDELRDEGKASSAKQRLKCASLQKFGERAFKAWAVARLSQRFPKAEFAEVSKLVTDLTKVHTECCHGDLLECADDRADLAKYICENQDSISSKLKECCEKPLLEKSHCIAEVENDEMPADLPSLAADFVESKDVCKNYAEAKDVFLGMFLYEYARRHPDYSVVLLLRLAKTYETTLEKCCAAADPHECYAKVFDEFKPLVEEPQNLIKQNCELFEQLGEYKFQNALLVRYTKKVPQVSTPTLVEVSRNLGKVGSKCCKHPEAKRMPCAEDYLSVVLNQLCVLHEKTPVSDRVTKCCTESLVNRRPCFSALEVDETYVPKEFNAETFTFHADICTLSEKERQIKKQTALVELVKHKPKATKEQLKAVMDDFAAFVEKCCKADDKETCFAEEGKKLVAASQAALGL
For `CCn1cc(C(=O)O)c(=O)c2cc3c(cc21)OCO3` [oxo, 5-ethyl-5,8-dihydro-8-oxo-l,3 dioxolo[4,5-g]quinoline-7-carboxylic acid, reference compound], the “n (Hill Coefficient), HSA” value was 1.62 ± 0.39 and the “n (Number of Binding Sites), HSA” value was 0.90 ± 0.01.

Same assay, conditions: 298 K, 2.5 µM HSA, 0–8 µM compound, pH 7.4
In the case of `CCn1cc(C(=O)O)c(=O)c2cc3c(cc21)OCO3` [oxo, 5-ethyl-5,8-dihydro-8-oxo-l,3 dioxolo[4,5-g]quinoline-7-carboxylic acid, reference compound], the “Ksv (Stern-Volmer constant), HSA” value is reported as “(1.95 ± 0.38) × 10^4 M^−1”.

Same assay, conditions: 298 K, 2.5 µM HSA, 0–8 µM compound, pH 7.4; listed as oxolinic acid
`CCn1cc(C(=O)O)c(=O)c2cc3c(cc21)OCO3` [oxo, 5-ethyl-5,8-dihydro-8-oxo-l,3 dioxolo[4,5-g]quinoline-7-carboxylic acid, reference compound] was tested, and the “Ksv (Stern-Volmer constant), HSA” value was 1.95 (± 0.38) × 10^4 M^−1.

Same assay, conditions: 298 K, from KSV = Kq τ0
For `CCn1cc(C(=O)O)c(=O)c2cc3c(cc21)OCO3` [oxo, 5-ethyl-5,8-dihydro-8-oxo-l,3 dioxolo[4,5-g]quinoline-7-carboxylic acid, reference compound], the “Kq (bimolecular quenching constant), HSA” value was 1.95e+12 M⁻¹ s⁻¹.

Same assay, conditions: 298 K, modified Stern-Volmer
For `CCn1cc(C(=O)O)c(=O)c2cc3c(cc21)OCO3` [oxo, 5-ethyl-5,8-dihydro-8-oxo-l,3 dioxolo[4,5-g]quinoline-7-carboxylic acid, reference compound], the “fa (fraction of fluorophore accessible to the quencher), HSA” value was 1.92 ± 0.35.

Same assay, conditions: Ka (association binding constant), HSA, 298 K
With `CCn1cc(C(=O)O)c(=O)c2cc3c(cc21)OCO3` [oxo, 5-ethyl-5,8-dihydro-8-oxo-l,3 dioxolo[4,5-g]quinoline-7-carboxylic acid, reference compound] the Kd was 92.6 µM.

Same assay, conditions: Kd, HSA, 298 K
With `CCn1cc(C(=O)O)c(=O)c2cc3c(cc21)OCO3` [oxo, 5-ethyl-5,8-dihydro-8-oxo-l,3 dioxolo[4,5-g]quinoline-7-carboxylic acid, reference compound] the Kd was 7.26 ± 2.66 µM.

These compounds were tested on MDA-MB 231 (human breast adenocarcinoma) (assay: MTS cytotoxicity assay, MDA-MB 231 cells). Conditions: Homo sapiens, MDA-MB-231, 48 h of incubation.
Format: cell-based
Procedure: (§1) For the evaluation of the cytotoxic effects of the complexes and ligand two human cancer cell lines were used, namely MDA-MB 231 (human breast adenocarcinoma) and LoVo (human colon adenocarcinoma); a normal cell line, human umbilical vein endothelial cells (HUVEC), was used as a reference. […] After 24 h and 48 h, respectively, cell viability was evaluated through MTS assay (data shown in Figures S16–S18) and the IC50 values were calculated (Table 5). The cytotoxicity assay is based on the ability of metabolically active cells to reduce MTS, a yellow tetrazolium salt, to the colored formazan, soluble in the culture medium; the concentration of formazan can be spectrophotometrically determined. […] PES is a cationic dye with high chemical stability that binds to MTS and forms a stable solution. […] The reduced MTS to formazan was spectrophotometrically measured at λ = 492 nm. The test was run on two cancer cell lines, LoVo and MDA-MB 231, and on a normal cell line, HUVEC. […] Cell viability data were obtained in triplicate (n = 3) and expressed as mean values ± standard deviations (SD). […] All assays were performed in 96-well microtiter plates with flat bottom (Falcon), using CellTiter 96 Aqueous One Solution Cell Proliferation Assay (Promega), an MTS-based colorimetric assay. The formazan was spectrophotometrically measured using the Tecan GENios Spectrophotometer.
`CCn1cc(C(=O)O)c(=O)c2cc3c(cc21)OCO3` [oxo, 5-ethyl-5,8-dihydro-8-oxo-l,3 dioxolo[4,5-g]quinoline-7-carboxylic acid, reference compound] showed an IC50 of 43.5 ± 4.94 µM.

The compounds below were run on EB-DNA system (CT-DNA) (assay: Competitive binding assay with ethidium bromide (EB) through fluorescence spectroscopy). Conditions: 10 µM CT-DNA, 2 µM EB, 0–40 µM compound, λex 500 nm.
Parameters: species or system calf
From the text: The manner of binding to the DNA macromolecule can be investigated through competitive binding studies with ethidium bromide (3,8-diamino-5-ethyl-6-phenylphenanthridinium bromide), a fluorescent dye; due to its aromatic ring, it can intercalate between two adjacent base pairs in the DNA structure and form a complex which emits fluorescent light; displacing EB results in a quenching effect. The Stern-Volmer constant (KSV) and the dissociation constant (K50) have been calculated from the resulting data.
Competitive binding studies were carried out on a Jasco FP 6500 fluorometer at room temperature, using quartz cells of 1 cm path-length. The fluorescence spectra were recorded on 1.6 mL samples containing 10 µM CT-DNA and 2 µM EB in the absence and presence of increasing amounts (0–40 µM with an increment of 5 µM) of complexes and free ligands, respectively, after being kept in contact for 10 min at room temperature, under continuous stirring and in the dark. The excitation wavelength used was 500 nm and the spectra was recorded in the 520–800 nm range. Two control samples were used, the first one containing DMSO, DNA and EB and the second one just the complex.
Data from the assay can be interpreted using the classical Stern-Volmer equation (Equation (3)):(3) F0/F=1+ KSV·[Q] where F0 and F are the fluorescence intensities of the EB-DNA samples in the absence and presence of the tested compounds and [Q] is the concentration of the compound; KSV is the Stern-Volmer constant and can be calculated from the plot of F0/F vs. [Q] as the slope.
The ratio of binding relative to the control sample exposed only to DMSO was plotted against the logarithm of concentration. The data points were fitted using the modified Hill function with offset (Origin®) (Equation (4)):(4) y=A1+(A2−A1)×x^n/K50^n+x^n where y is the ratio of binding (F/F0) and x is the concentration, A1 is the minimum of y values, A2 is the maximum of y values, K50 is the concentration corresponding to 50% binding and n is the Hill coefficient.
For `CCn1cc(C(=O)O)c(=O)c2cc3c(cc21)OCO3` [oxo, 5-ethyl-5,8-dihydro-8-oxo-l,3 dioxolo[4,5-g]quinoline-7-carboxylic acid, reference compound], the “Ksv (Stern-Volmer quenching constant, EB-DNA system)” value was “(1.05 ± 0.02) × 10^4”.

Same assay, conditions: concentration corresponding to 50% binding; 10 µM CT-DNA, 2 µM EB
In the case of `CCn1cc(C(=O)O)c(=O)c2cc3c(cc21)OCO3` [oxo, 5-ethyl-5,8-dihydro-8-oxo-l,3 dioxolo[4,5-g]quinoline-7-carboxylic acid, reference compound], the “K50 (EB Displacement Assay)” value is reported as 42.07 ± 18.48 µM.

What follows are compounds tested on LoVo (human colon adenocarcinoma) (assay: MTS cytotoxicity assay, LoVo cells). Conditions: Homo sapiens, LoVo, 48 h of incubation.
Format: cell-based
Procedure: as §1
In the case of `CCn1cc(C(=O)O)c(=O)c2cc3c(cc21)OCO3` [oxo, 5-ethyl-5,8-dihydro-8-oxo-l,3 dioxolo[4,5-g]quinoline-7-carboxylic acid, reference compound], the IC50 is reported as over 200 µM.

These compounds were tested on HUVEC (normal human umbilical vein endothelial cells) (assay: MTS cytotoxicity assay, HUVEC normal cells). Conditions: Homo sapiens, HUVEC, 48 h of incubation.
Format: cell-based
Procedure: as §1
In the case of `CCn1cc(C(=O)O)c(=O)c2cc3c(cc21)OCO3` [oxo, 5-ethyl-5,8-dihydro-8-oxo-l,3 dioxolo[4,5-g]quinoline-7-carboxylic acid, reference compound], the IC50 is reported as over 200 µM.

Each compound was assayed against T1, Apo-transferrin (apo-Tf) (Homo sapiens, UniProt P02787) (assay: Fluorescence quenching of apo-transferrin). Conditions: 298 K.
T1 construct: purchased Sigma Aldrich Chemical Co. (Schnelldorf, Germany)
T1 sequence (P02787 20-698): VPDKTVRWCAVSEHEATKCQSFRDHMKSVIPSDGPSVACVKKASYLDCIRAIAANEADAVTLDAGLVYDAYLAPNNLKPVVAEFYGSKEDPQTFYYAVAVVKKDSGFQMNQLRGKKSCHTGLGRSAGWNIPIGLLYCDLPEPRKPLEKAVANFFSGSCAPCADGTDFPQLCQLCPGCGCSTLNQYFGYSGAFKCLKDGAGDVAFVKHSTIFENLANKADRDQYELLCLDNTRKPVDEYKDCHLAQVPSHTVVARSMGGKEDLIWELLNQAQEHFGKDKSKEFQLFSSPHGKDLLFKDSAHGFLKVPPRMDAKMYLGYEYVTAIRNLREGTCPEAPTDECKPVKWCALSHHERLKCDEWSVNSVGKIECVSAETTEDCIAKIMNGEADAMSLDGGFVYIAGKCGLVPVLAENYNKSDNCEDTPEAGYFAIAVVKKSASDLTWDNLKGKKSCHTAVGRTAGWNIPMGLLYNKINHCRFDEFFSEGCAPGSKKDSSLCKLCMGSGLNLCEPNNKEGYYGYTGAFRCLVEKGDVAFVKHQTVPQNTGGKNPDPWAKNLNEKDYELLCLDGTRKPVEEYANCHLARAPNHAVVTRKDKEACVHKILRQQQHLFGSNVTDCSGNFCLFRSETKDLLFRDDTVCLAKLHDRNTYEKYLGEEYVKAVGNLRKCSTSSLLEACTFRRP
Format: binding
In the case of `CCn1cc(C(=O)O)c(=O)c2cc3c(cc21)OCO3` [oxo, 5-ethyl-5,8-dihydro-8-oxo-l,3 dioxolo[4,5-g]quinoline-7-carboxylic acid, reference compound], the “n (Hill Coefficient), apo-Tf” value is reported as 1.89 ± 1.35 and the “n (Number of Binding Sites), apo-Tf” value is reported as 0.67 ± 0.00.

Same assay, conditions: 298 K, 1 µM apo-Tf, 0–8 µM compound, pH 7.4
In the case of `CCn1cc(C(=O)O)c(=O)c2cc3c(cc21)OCO3` [oxo, 5-ethyl-5,8-dihydro-8-oxo-l,3 dioxolo[4,5-g]quinoline-7-carboxylic acid, reference compound], the “Ksv (Stern-Volmer constant), apo-Tf” value is reported as “(17.45 ± 0.95) × 10^4 M^−1”.

Same assay, conditions: 298 K, from KSV = Kq τ0
With `CCn1cc(C(=O)O)c(=O)c2cc3c(cc21)OCO3` [oxo, 5-ethyl-5,8-dihydro-8-oxo-l,3 dioxolo[4,5-g]quinoline-7-carboxylic acid, reference compound] the “Kq (bimolecular quenching constant), apo-Tf” value was 1.745e+13 M⁻¹ s⁻¹.

Same assay, conditions: 298 K, modified Stern-Volmer
With `CCn1cc(C(=O)O)c(=O)c2cc3c(cc21)OCO3` [oxo, 5-ethyl-5,8-dihydro-8-oxo-l,3 dioxolo[4,5-g]quinoline-7-carboxylic acid, reference compound] the “fa (fraction of fluorophore accessible to the quencher), apo-Tf” value was 0.36±0.01.

Same assay, conditions: Kd, apo-Tf, 298 K
`CCn1cc(C(=O)O)c(=O)c2cc3c(cc21)OCO3` [oxo, 5-ethyl-5,8-dihydro-8-oxo-l,3 dioxolo[4,5-g]quinoline-7-carboxylic acid, reference compound] gave a Kd of 8.11 ± 7.34 µM.
